We go through 69 compounds from publication doi:10.1101/2021.10.07.463234v2 (biorxiv, 2021).

Each structure is given as a SMILES string. Counter-ions that a name gives are not always drawn.

The assay addresses SARS-CoV-2 Mac1 (Severe acute respiratory syndrome coronavirus 2, UniProt P0DTD1). In words: biochemical. The note with it: for inhibition at 100 µM: read-out: %inhibition; for %inhibition: 100 µM, inhibitor.

Take `CS(=O)(=O)c1ccc(C2=C(c3ccccc3)C(=O)OC2)cc1` [Rofecoxib]: the inhibition at 100 µM came to 12.8%.
As for `O=C(Nc1c(Cl)cncc1Cl)c1ccc(OC(F)F)c(OCC2CC2)c1` [Roflumilast], the inhibition at 100 µM was determined as 5.88%.
On the same count and under the same terms, the value for `COc1ccc(C2CNC(=O)C2)cc1OC1CCCC1` (stereo not drawn) [Rolipram] was 0%; that for `Cn1c([N+](=O)[O-])cnc1COC(N)=O` [Ronidazole] was 0%.
In the case of `CCCN(CCC)CCc1cccc2c1CC(=O)N2` [Ropinirole HCl], the inhibition at 100 µM amounted to 0%.
On to `CCCN1CCCC[C@H]1C(=O)Nc1c(C)cccc1C` [Ropivacaine], for which the inhibition at 100 µM was 0%.
With `CN(CCOc1ccc(CC2SC(=O)NC2=O)cc1)c1ccccn1` (stereo not drawn) [Rosiglitazone HCl], the “%inhibition” value was 0%.
The same measure, in the same setting: the value for `CN(CCOc1ccc(CC2SC(=O)NC2=O)cc1)c1ccccn1` (stereo not drawn) [Rosiglitazone maleate] was 9.239%; that for `CN(CCOc1ccc(CC2SC(=O)NC2=O)cc1)c1ccccn1` (stereo not drawn) [Rosiglitazone] was 18.44%.
On the same count and under the same terms, the value for `CC(C)c1nc(N(C)S(C)(=O)=O)nc(-c2ccc(F)cc2)c1/C=C/[C@@H](O)C[C@@H](O)CC(=O)O` [Rosuvastatin Calcium] was 0%.
`CC(C)c1nc(N(C)S(C)(=O)=O)nc(-c2ccc(F)cc2)c1/C=C/[C@@H](O)C[C@@H](O)CC(=O)O` [Rosuvastatin]: the “%inhibition” value stood at 7.223%.
Consider `CCCN(CCc1cccs1)[C@H]1CCc2c(O)cccc2C1` [Rotigotine], for which the inhibition at 100 µM was 6.99%.
Same read-out and setting: the value for `Cc1nc(C(=O)NCC(=O)O)c(O)c2ccc(Oc3ccccc3)cc12` [Roxadustat (FG-4592)] was 14.8%; that for `CC[C@H]1OC(=O)[C@H](C)[C@@H](O[C@H]2C[C@@](C)(OC)[C@@H](O)[C@H](C)O2)[C@H](C)[C@@H](O[C@@H]2O[C@H](C)C[C@H](N(C)C)[C@H]2O)[C@](C)(O)C[C@@H](C)/C(=N\OCOCCOC)[C@H](C)[C@@H](O)[C@]1(C)O` [Roxithromycin] was 0.445%.
On the same count and under the same terms, the value for `CNCc1ccc(-c2[nH]c3cc(F)cc4c3c2CCNC4=O)cc1` [Rucaparib (AG-014699,PF-01367338) phosphate] was 10.4%; that for `NC(=O)c1cn(Cc2c(F)cccc2F)nn1` [Rufinamide] was 25.2%; that for `Cc1cncc(CN2CCC(=C3c4ccc(Cl)cc4CCc4cccnc43)CC2)c1` [Rupatadine Fumarate] was 24.3%.
Same read-out and setting: the value for `C[C@@H]1O[C@@H](OC[C@H]2O[C@@H](Oc3c(-c4ccc(O)c(O)c4)oc4cc(O)cc(O)c4c3=O)[C@H](O)[C@@H](O)[C@@H]2O)[C@H](O)[C@H](O)[C@H]1O` [Rutin] was 3.42%.
In the case of `N#CC[C@H](C1CCCC1)n1cc(-c2ncnc3[nH]ccc23)cn1` [Ruxolitinib (INCB018424)], the “%inhibition” value is given as 0%.
Regarding `COc1ccc([C@H]2CNC(=O)C2)cc1OC1CCCC1` [S- (+)-Rolipram], the inhibition at 100 µM came to 0%.
With `N#CC[C@H](C1CCCC1)n1cc(-c2ncnc3[nH]ccc23)cn1` [S-Ruxolitinib (INCB018424)], the “%inhibition” value is reported as 18.93%.
Take `O=C1NS(=O)(=O)c2ccccc21` [Saccharin]: the inhibition at 100 µM amounted to 0%.
For the compound `C[C@H](NCc1ccc(OCc2cccc(F)c2)cc1)C(N)=O` [Safinamide Mesylate], the “%inhibition” value turned out to be 9.23%.
Take `C[C@H](NCc1ccc(OCc2cccc(F)c2)cc1)C(N)=O` [Safinamide]: the inhibition at 100 µM turned out to be 15%.
Consider `CC(C)(C)NCC(O)c1ccc(O)c(CO)c1` (stereo not drawn) [Salbutamol Sulfate], for which the “%inhibition” value stood at 6.444%.
On the same count and under the same terms, the value for `CC(C)(C)NCC(O)c1ccc(O)c(CO)c1` (stereo not drawn) [Salbutamol] was 0%; that for `O=C(O)c1ccccc1O` [Salicylic acid] was 1.324%.
As for `CC(C)=CCC/C(C)=C/CC/C(C)=C/CSc1ccccc1C(=O)O` [Salirasib], the inhibition at 100 µM was 0%.
Same read-out and setting: the value for `OCc1cc(C(O)CNCCCCCCOCCCCc2ccccc2)ccc1O` (stereo not drawn) [Salmeterol] was 3.12%.
`CN1CCN(CCOc2cc(OC3CCOCC3)c3c(Nc4c(Cl)ccc5c4OCO5)ncnc3c2)CC1` [Saracatinib (AZD0530)]: the inhibition at 100 µM was determined as 32.3%.
`O=C(O)c1cn(-c2ccc(F)cc2)c2cc(N3CCNCC3)c(F)cc2c1=O` [Sarafloxacin HCl]: the inhibition at 100 µM was determined as 15.7%.
On the same count and under the same terms, the value for `COc1cccc(CCc2ccccc2OCC(CN(C)C)OC(=O)CCC(=O)O)c1` (stereo not drawn) [Sarpogrelate hydrochloride] was 0%.
Same read-out and setting: the value for `N#C[C@@H]1C[C@@H]2C[C@@H]2N1C(=O)[C@@H](N)C12CC3CC(CC(O)(C3)C1)C2` [Saxagliptin hydrate] was 8.79%.
As to `N#C[C@@H]1C[C@H]2C[C@H]2N1C(=O)[C@@H](N)[C@@]12C[C@@H]3C[C@@H](C[C@@](O)(C3)C1)C2` [Saxagliptin], the inhibition at 100 µM amounted to 12.8%.
`CN1[C@@H]2C[C@@H](OC(=O)[C@H](CO)c3ccccc3)C[C@H]1[C@@H]1O[C@@H]12` [Scopolamine HBr]: the inhibition at 100 µM was found to be 0%.
For the compound `Cc1ncc([N+](=O)[O-])n1CC(C)O` (stereo not drawn) [Secnidazole], the inhibition at 100 µM was 34.4%.
With `CO[C@H]1C[C@H](O[C@@H]2/C(C)=C/C[C@@H]3C[C@@H](C[C@]4(CC[C@H](C)[C@@H](C5CCCCC5)O4)O3)OC(=O)[C@@H]3C=C(C)/C(=N/O)[C@H]4OC/C(=C\C=C\[C@@H]2C)[C@]43O)O[C@@H](C)[C@@H]1O` [Selamectin], the inhibition at 100 µM came to 13.4%.
For `CC(C)N(CCCCOCC(=O)NS(C)(=O)=O)c1cnc(-c2ccccc2)c(-c2ccccc2)n1` [Selexipag], the inhibition at 100 µM was 0%.
Same read-out and setting: the value for `O=C(/C=C\n1cnc(-c2cc(C(F)(F)F)cc(C(F)(F)F)c2)n1)NNc1cnccn1` [Selinexor (KPT-330)] was 0%; that for `NC(=O)C1CCCc2c1[nH]c1ccc(Cl)cc21` (stereo not drawn) [Selisistat (EX 527)] was 15.7%.
Same read-out and setting: the value for `Cn1cnc2c(F)c(Nc3ccc(Br)cc3Cl)c(C(=O)NOCCO)cc21` [Selumetinib (AZD6244)] was 24.4%.
The same measure, in the same setting: the value for `CC(C)[C@H](O)C(=O)N[C@@H](C)C(=O)N[C@@H]1C(=O)N(C)CCc2ccccc21` [Semagacestat (LY450139)] was 0%; that for `NCCc1c[nH]c2ccc(O)cc12` [Serotonin HCl] was 8.8%.
For `Clc1ccc(C(Cn2ccnc2)OCc2csc3c(Cl)cccc23)c(Cl)c1` (stereo not drawn) [Sertaconazole nitrate], the inhibition at 100 µM was found to be 0%.
Regarding `CCCc1nn(C)c2c(=O)[nH]c(-c3cc(S(=O)(=O)N4CCN(C)CC4)ccc3OCC)nc12` [Sildenafil Citrate], the inhibition at 100 µM came out at 0%.
Consider `COc1cc([C@H]2Oc3cc([C@H]4Oc5cc(O)cc(O)c5C(=O)[C@@H]4O)ccc3O[C@@H]2CO)ccc1O` [Silibinin], for which the inhibition at 100 µM was 0%.
On the same count and under the same terms, the value for `O=C(O)c1ccc2c(c1)nc(Nc1cccc(Cl)c1)c1ccncc12` [Silmitasertib (CX-4945)] was 0%.
Same read-out and setting: the value for `C[C@H](Cc1cc2c(c(C(N)=O)c1)N(CCCO)CC2)NCCOc1ccccc1OCC(F)(F)F` [Silodosin] was 0%.
The same measure, in the same setting: the value for `COc1ccc2c(O[C@@H]3C[C@H]4C(=O)N[C@]5(C(=O)NS(=O)(=O)C6CC6)C[C@H]5/C=C\CCCCN(C)C(=O)[C@@H]4C3)cc(-c3nc(C(C)C)cs3)nc2c1C` [Simeprevir] was 11.4%.
Turning to `CCC(C)(C)C(=O)O[C@H]1C[C@@H](C)C=C2C=C[C@H](C)[C@H](CC[C@@H]3C[C@@H](O)CC(=O)O3)[C@H]21` [Simvastatin], the inhibition at 100 µM worked out at 14%.
Consider `CN[C@@H]1[C@@H](O)[C@@H](O[C@@H]2[C@@H](O)[C@H](O[C@H]3OC(CN)=CC[C@H]3N)[C@@H](N)C[C@H]2N)OC[C@]1(C)O` [Sisomicin sulfate], for which the inhibition at 100 µM was 0%.
Still for that read-out and setting: the value for `N[C@@H]1CN(c2c(F)cc3c(=O)c(C(=O)O)cn([C@@H]4C[C@@H]4F)c3c2Cl)CC12CC2` [Sitafloxacin Hydrate] was 5.2%.
As to `N[C@@H](CC(=O)N1CCn2c(nnc2C(F)(F)F)C1)Cc1cc(F)c(F)cc1F` [Sitagliptin], the inhibition at 100 µM came out at 0%.
The same measure, in the same setting: the value for `CC(C)(C)C(=O)Oc1ccc(S(=O)(=O)Nc2ccccc2C(=O)NCC(=O)O)cc1` [Sivelestat (ONO-5046)] was 0%; that for `Nc1ccc(C(=O)O)c(O)c1` [Sodium 4-Aminosalicylate] was 0%.
As for `Nc1ccc(C(=O)NCC(=O)O)cc1` [Sodium 4-aminohippurate Hydrate], the inhibition at 100 µM was found to be 0%.
The same measure, in the same setting: the value for `O=C(O)[C@H]1O[C@H](O)[C@H](O)[C@@H](O)[C@@H]1O` [Sodium Gluconate] was 0%.
Still for that read-out and setting: the value for `O=C(O)CCCc1ccccc1` [Sodium Phenylbutyrate] was 6.6%; that for `O=S(=O)(O)Oc1ccc(C(c2ccc(OS(=O)(=O)O)cc2)c2ccccn2)cc1` [Sodium Picosulfate] was 1.51%.
As for `O=C1O[C@H]([C@@H](O)CO)C(O)=C1O` [Sodium ascorbate], the “%inhibition” value is given as 0%.
The same measure, in the same setting: the value for `O=C(O)c1ccccc1` [Sodium benzoate] was 0%.
Regarding `CCCC(=O)O` [Sodium butyrate], the inhibition at 100 µM is 0%.
With `O=C(O)O` [Sodium carbonate], the inhibition at 100 µM amounted to 0.406%.
Take `Cc1cc(S(=O)(=O)O)c2c(C)ccc(C(C)C)cc1-2` [Sodium gualenate]: the inhibition at 100 µM came to 12.6%.
As for `O=C(O)c1ccccc1O` [Sodium salicylate], the “%inhibition” value is 0%.
Turning to `O=C(O)CCC(=O)O` [Sodium succinate], the inhibition at 100 µM is 0%.
Regarding `Nc1ccc(S(=O)(=O)Nc2ncccn2)cc1` [Sodium sulfadiazine], the “%inhibition” value is given as 0%.
With `CC(C)=CCOc1ccc(/C=C/C(=O)c2ccc(OCC=C(C)C)cc2OCC(=O)O)cc1` [Sofalcone], the inhibition at 100 µM worked out at 14.1%.
Regarding `CC(C)OC(=O)[C@H](C)N[P@](=O)(OC[C@H]1O[C@@H](n2ccc(=O)[nH]c2=O)[C@](C)(F)[C@@H]1O)Oc1ccccc1` [Sofosbuvir (PSI-7977, GS-7977)], the inhibition at 100 µM came out at 42.9%.
